pKi: −log10 of the molar value.
Columns and labels:
[1] = molecular target: T1, Adenosine receptor A1 (Rattus norvegicus, UniProt P25099); assay: Binding affinity against adenosine A1 receptor in rat cortex by using [3H]- PIA as a radioligand; assay type: tissue-based
T1 sequence (P25099 whole entry): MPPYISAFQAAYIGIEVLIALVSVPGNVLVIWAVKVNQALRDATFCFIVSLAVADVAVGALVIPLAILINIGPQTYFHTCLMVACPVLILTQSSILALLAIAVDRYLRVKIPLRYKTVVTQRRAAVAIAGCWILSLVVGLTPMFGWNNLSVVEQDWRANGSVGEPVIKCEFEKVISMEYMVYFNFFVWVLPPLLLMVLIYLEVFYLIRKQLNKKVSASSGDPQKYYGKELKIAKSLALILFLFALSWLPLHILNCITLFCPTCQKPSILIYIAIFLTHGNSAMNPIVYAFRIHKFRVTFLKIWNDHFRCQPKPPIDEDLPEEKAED

[2] = molecular target: T2, Adenosine A2 receptor (Rattus norvegicus, UniProt P29276+P30543); assay: Binding affinity against adenosine A2 receptor in rat striatum by using [3H]NECA as a radioligand; assay type: tissue-based
[3] = molecular target: T2, Adenosine A2 receptor; assay: Tested for inhibition of rat PC12 adenylate cyclase stimulation by using NECA as a radioligand; assay type: cell-based; conditions: pc-12
[4] = molecular target: Adenosine receptors; A1 & A2 (Rattus norvegicus) (UniProt P29276+P25099+P30543); assay: It is the ratio of Ki value of A1 receptor to that of A2 receptor.; assay type: protein assay
[5] = Hydrophobicity index; assay type: ADME
[6] = molecular target: T3, Adenosine receptor A1 (Rattus norvegicus) (UniProt P25099); conditions: 100 uM
T3 sequence (whole entry): T1 sequence (P25099 whole entry)
Description: Inhibition of [3H]PIA binding to adenosine A1 receptor of rat cortex at 100 uM

Row | Compound | pKi [1] | Ki [2] | Ki [3] | Selectivity ratio [4] | pKi [2] | k' [5] | Inhibition [6]
1 | CC[C@H](Nc1ncnc2c1ncn2-c1ccccc1)c1ccccc1 | 5.14 | 18 µM | 9.9 µM | 2.5 | – | – | –
2 | CC[C@@H](Nc1nc(Cl)nc2c1ncn2C)c1ccccc1 | 5.48 | 6.8 µM | 4.3 µM | 2.1 | – | – | –
3 | CC[C@@H](Nc1ncnc2c1ncn2C)c1ccccc1.Cl | 5.60 | 55 µM | 25 µM | 22 | – | – | –
4 | CC[C@H](Nc1nc(Cl)nc2c1ncn2C)c1ccccc1 | 5.55 | – | 17 µM | 4.3 | 4.92 | – | –
5 | Cn1cnc2c(NC3CCCC3)nc(Cl)nc21 | 6.28 | 9.3 µM | 6.3 µM | 18 | – | 3.37 | –
6 | Nc1ncnc2c1ncn2C1CCCO1 (stereo not given) | – | 23 µM | 2.4 µM | 0.82 | – | 0.21 | –
7 | CC[C@@H](Nc1ncnc2c1ncn2-c1ccccc1)c1ccccc1 | 5.33 | 15 µM | 11 µM | 3.2 | – | – | –
8 | CCn1cnc2c(NC3CCCC3)ncnc21 | – | 17 µM | 10.3 µM | 39 | – | 1.66 | –
9 | Nc1ncnc2c1ncn2C1CCCC1 | 5.74 | 8.2 µM | 3.4 µM | 4.6 | – | 1.94 | –
10 | c1ccc(-n2cnc3c(NC4CCCC4)ncnc32)cc1 | 5.06 | 79 µM | 47 µM | 9.1 | – | 3.91 | –
11 | Cn1cnc2c(NC3CCCC3)ncnc21 | – | 11 µM | 25 µM | 26 | – | 1.29 | –
12 | c1nc(NC2CCCC2)c2ncn(C3CCCO3)c2n1 (stereo not given) | 5.77 | 39 µM | 30 µM | 23 | – | 1.81 | –
13 | c1ccc(Nc2ncnc3c2ncn3-c2ccccc2)cc1 | 5.16 | 111 µM | 50 µM | 16 | – | – | –
14 | Cn1cnc2c(Nc3ccccc3)nc(Cl)nc21 | 5.15 | 31 µM | 21 µM | 4.4 | – | – | –
15 | CC[C@H](Nc1ncnc2c1ncn2C)c1ccccc1.Cl | 4.96 | 84 µM | 74 µM | 7.6 | – | – | –
16 | CCn1cnc2c(N)ncnc21 | – | 8.8 µM | 5.6 µM | 0.19 | – | 0.39 | –
17 | CCn1cnc2c(NC3CCCCC3)ncnc21 | 5.70 | 11 µM | 8.5 µM | 5.5 | – | – | –
18 | OCCn1cnc2c(NC3CCCC3)ncnc21 | 5.48 | 47 µM | 27 µM | 14 | – | 0.68 | –
19 | c1nc(NC2CCCC2)c2ncn(C3CCCC3)c2n1 | 5.92 | 19 µM | 5.1 µM | 16 | – | 4.99 | –
20 | Cn1cnc2c(N)ncnc21 | 4.16 | 15 µM | 24 µM | 0.22 | – | 0.11 | –
21 | Cn1cnc2c(N)nc(Cl)nc21 | 4.64 | 11 µM | 16 µM | 0.48 | – | 0.22 | –
22 | Nc1ncnc2c1ncn2-c1ccccc1 | 4.72 | 38 µM | 74 µM | 2 | – | 0.56 | –
23 | Nc1ncnc2c1ncn2CCO | < 4.00 | 46 µM | 12 µM | < 0.5 | – | 0.04 | 30%
24 | Cn1cnc2c(NC3CCCCC3)ncnc21 | – | 13 µM | 21 µM | 14 | – | – | –
25 | Cn1cnc2c(Nc3ccccc3)ncnc21 | 5.16 | 68 µM | 107 µM | 9.9 | – | – | –

From ChEMBL document CHEMBL1125213 (J Med Chem, 1991)
